Reference: publication PMC9866693, “Novel Benzimidazole Derived Imine Ligand and Its Co(III) and Cu(II) Complexes as Anticancer Agents: Chemical Synthesis, DFT Studies, In Vitro and In Vivo Biological Investigations” (Pharmaceuticals, 2023)

Columns and labels:
[1] = system: NIH3T3 cell line; assay: MTT anti-proliferative assay, NIH3T3; type: cell-based; conditions: Mus musculus, NIH3T3, 48 h, incubated for 2 days, read-out: IC50 against NIH3T3
Protocol: (§1) In vitro anti-proliferative assays of the cultured cell lines A549, EAC, SIHA and NIH3T3, under laboratory conditions, were performed. The cells were developed in Dulbecco’s Modified Eagle Medium (DMEM) (Gibco-Invitrogen, Austin, TX, USA), in addition with heat-inactivated Foetel Bovine Serum (Invitrogen, Waltham, MA, USA), Pen Strep and followed by the addition of NaHCO3 (0.40%). The resulting component was incubated at 37 °C and maintained at 97% humidity and 90% air atmosphere. Exactly 10 µM of the synthesized ligand HBMF and its complexes (C1–C4), prepared using DMSO as a solvent, was used initially to assess their cytotoxicity and anti-proliferative activity in vitro using the MTT assay as described previously. 5-fluorouracil was used as a positive control and an appropriate vehicle control.
(§2) The various cell lines, such as A549, EAC, SIHA and NI3T3, were used initially to investigate the extent of preliminary proliferation against the MTT assay. The synthesized ligand, the complexes, and 5-fluorouracil were treated with all four cell lines as mentioned above. The cells were treated in the absence and presence of the ligand and its complexes and were incubated for 2 days. The effect of the proliferating cells and the color change was investigated by adding 5 mg/mL of 3-(4,5-Dimethylthiazol-2-yl)-2,5-Diphenyltetrazolium Bromide (MTT) reagent.

[2] = system: Ehrlich–Lettre ascites carcinoma (EAC) cell line; assay: MTT anti-proliferative assay, EAC; type: cell-based; conditions: 48 h, incubated for 2 days, read-out: IC50 against EAC
Protocol: as §1, §2

[3] = system: A549 cell line; assay: MTT anti-proliferative assay, A549; type: cell-based; conditions: Homo sapiens, A549, 48 h, incubated for 2 days, read-out: IC50 against A549
Protocol: as §1, §2

[4] = system: SIHA cell line; assay: MTT anti-proliferative assay, SIHA; type: cell-based; conditions: Homo sapiens, 48 h, incubated for 2 days, read-out: IC50 against SIHA
Protocol: as §1, §2

[5] = Solubility and stability observations; type: physicochemical
Description: Scheme 1 depicts the general route for the preparation of HBMF. Neutralization of the aqueous solution of 2-(aminomethyl) benzimidazole hydrochloride (0.100 g, 0.4543 mmol) was done in the first step of synthesis using an aqueous solution of potassium carbonate (0.0753 g, 0.5451 mmol) and then mixed with a methanolic solution of 5-fluorosalicyladihyde (0.0630 g, 0.4543 mmol). The resulting mixture was stirred at room temperature using a magnetic stirrer. The yellow precipitate obtained was filtered off and washed with water followed by petroleum ether and dried under vacuum. The completion of the reaction was monitored on pre-coated silica gel plates by the thin layer chromatography (TLC) method using chloroform and methanol as the solvent system in the ratio (9:1). The Schiff base thus obtained was insoluble in water but soluble in methanol, DMSO, etc. Elemental analysis for HBMF (C15H11FN3O): Calculated (%): C, 62.91; H, 4.33; F, 7.05; N, 14.59; O, 5.90. Found (%): C, 62.95; H, 4.36; F, 7.09; N, 14.65; O, 5.94. ^1H NMR (CDCl3, 400 MHz) ð: 5.09 [C1] (s, 2H, CH2); 6.86 [C7 and C6] (dd, 2H, Ar-H); 7.04–7.06 [C12 and C13] (t, 1H, Ar-H); 7.25 [C4] (d, 2H, Ar-H); 7.57 [C11] (d, 1H, Ar-H); 7.58 [C14] […]
Millimolar solutions of all the prepared metal complexes (C1-0.599, C2-0.615, C3-0.595, and C4-0.629 […]) were prepared using DMSO solvent and the conductance was measured (Table S1). […]

IC50 [2] [µM]	IC50 [3] [µM]	Solubility in methanol, DMSO ([5]; methanol, DMSO, etc.)	Solubility in water ([5]; water)	Structure (SMILES)	IC50 [1] [µM]	IC50 [4] [µM]
48 ± 0.3	54.21 ± 0.4	soluble	insoluble	Oc1ccc(F)cc1/C=N/Cc1nc2ccccc2[nH]1 [HBMF, 2-((E)-((1H-benzo[d]-2-yl)methylimino)methyl)-4-fluorophenol]	52.6 ± 0.4	53.4 ± 0.7
6.1 ± 1.8	7.2 ± 0.5			O=c1[nH]cc(F)c(=O)[nH]1 [5‐FU, 5-fluorouracil, reference compound]	7.8	6.2 ± 0.7
